{"source": "patent US20190382827A1", "about": "“USE OF MICROBIAL METABOLITES FOR TREATING DISEASES” (Yeda Research and Development Co. Ltd., priority 2015, published 2019)", "key": {"DSS colitis": {"system": "DSS colitis", "assay": "DSS colitis", "assay_type": "in vivo, mouse", "method": "For IL-18 rescue experiments, recombinant IL-18 (MBL, Cat#B004-2) was injected intraperitoneally at a concentration of 1 μg per mouse for 5 days, and not injected for 2 days prior to DSS treatment. IL-18 injection to Swiss Webster germ-free mice and Nlrp6^−/− mice was performed twice a day for 3 days, while the mice were kept sterile using a cage-autonomous system (Hecht et al., 2014).\nMice were treated with 1.5% (w/v) DSS (M.W.=36,000-50,000 Da; MP Biomedicals) in their drinking water for 7 days followed by regular access to water. The animals were weighed daily and monitored for signs of distress as well as rectal bleeding.\nFor DSS rescue experiments, mice were receiving taurine in the drinking water prior to DSS treatment in a concentration of 100 mg/ml for 14 days.\nColonoscopy was performed using a high-resolution mouse video endoscopic system (Carl Storz, Tuttlingen, Germany). The severity of colitis was blindly scored using MEICS (Murine Endoscopic Index of Colitis Severity), which is based on five parameters: granularity of mucosal surface; vascular pattern; translucency of the colon mucosa; visible fibrin; and stool consistency (Becker et al., 2006).\nOn the day of the assay, 4 kDa fluorescein isothiocyanate (FITC)-dextran was dissolved in phosphate buffered saline (PBS) to a concentration of 80 mg ml^−1. Mice were fasted for 4 hours prior to gavage with 150 μl dextran. Mice were anesthetized 3 hours following gavage and blood was collected, centrifuged at 1,000×g for 12 min at 4° C. Serum was collected and fluorescence was quantified at an excitation wavelength of 485 nm and 535 nm emission wavelength.\nDNA was extracted from liver samples (using MoBio PowerSoil kit). DNA concentration was calculated using a standard curve of known DNA concentrations from E. coli K12. 16S qPCR using primers identifying different regions of the V6 16S gene was performed using Kappa SYBR fast mix.\nAbsolute number of bacteria in the samples was then approximated as DNA amount in a sample/DNA molecule mass of bacteria."}, "[1]": {"biological_target": "T1, colonic NLRP6 inflammasome (Mus musculus, UniProt Q91WS2)", "T1 construct": "in colon tissue obtained from WT mice drinking taurine for 14 days; from tissue; host or cells: colon of living WT mice (SPF for A4; germ-free for A5)", "T1 sequence (Q91WS2 1-869)": "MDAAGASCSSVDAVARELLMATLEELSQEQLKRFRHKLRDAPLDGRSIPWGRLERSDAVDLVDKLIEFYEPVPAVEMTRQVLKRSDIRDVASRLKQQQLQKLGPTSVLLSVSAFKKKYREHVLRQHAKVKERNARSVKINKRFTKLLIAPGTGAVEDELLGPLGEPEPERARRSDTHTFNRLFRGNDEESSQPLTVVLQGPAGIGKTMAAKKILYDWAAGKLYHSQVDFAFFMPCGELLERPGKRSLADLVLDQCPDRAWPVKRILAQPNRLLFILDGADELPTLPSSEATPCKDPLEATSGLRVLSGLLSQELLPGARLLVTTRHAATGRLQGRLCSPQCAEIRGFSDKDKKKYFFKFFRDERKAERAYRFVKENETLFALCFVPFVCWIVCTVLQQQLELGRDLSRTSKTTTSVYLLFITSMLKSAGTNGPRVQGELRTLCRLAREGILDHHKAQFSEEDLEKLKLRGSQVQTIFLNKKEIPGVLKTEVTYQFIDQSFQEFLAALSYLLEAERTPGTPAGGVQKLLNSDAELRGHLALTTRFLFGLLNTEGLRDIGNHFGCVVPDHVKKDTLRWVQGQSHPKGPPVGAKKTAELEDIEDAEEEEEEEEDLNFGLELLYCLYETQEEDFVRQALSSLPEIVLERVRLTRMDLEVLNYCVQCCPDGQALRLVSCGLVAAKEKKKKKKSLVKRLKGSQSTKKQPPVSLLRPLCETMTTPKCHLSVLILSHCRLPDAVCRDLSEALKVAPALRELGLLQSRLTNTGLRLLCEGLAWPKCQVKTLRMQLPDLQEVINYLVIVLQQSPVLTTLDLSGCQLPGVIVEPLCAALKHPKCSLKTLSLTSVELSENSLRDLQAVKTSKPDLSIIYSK", "assay": "Metabolites in the drinking water of mice, colonic inflammasome readouts", "assay_type": "in vivo", "conditions": "for colonic lamina propria hematopoietic cell populations: WT mice drinking for 14 days, FACS; for colonic caspase-1 activation (activated caspase-1 levels): WT mice, drinking water for 14 days", "from_the_text": "(A, B) Immunoblot analysis (A) and quantification (B) of pro-caspase-1 (p45) and cleaved caspase-1 (p20) in colon tissue obtained from WT mice drinking taurine for 14 days.\n(C) IL-18 production by colon explants obtained from WT mice drinking taurine for 14 days.\n(D) Ang4 expression in sorted epithelial cells (CD45^−EpCAM^+) obtained from WT mice drinking taurine for 14 days.\n(I) IL-18 production by colon explants from WT, Asc^−/− or Nlrp6^−/− mice drinking taurine for 14 days.\n(J, K) Immunoblot analysis (J) and quantification (K) of pro-caspase-1 (p45) and cleaved caspase-1 (p20) in colon tissue obtained from WT mice drinking histamine with or without spermine for 14 days.\nColons were excised and washed thoroughly with PBS, homogenized in RIPA buffer containing protease inhibitors, incubated for 20 min in 4° C. and centrifuged for 20 min, 14,000 rpm at 4° C. Samples were separated on 15% acrylamide gels and transferred onto nitrocellulose membranes. Western blot analysis was performed using anti-caspase 1 p20 polyclonal antibody (Adipogen, AG-20B-0042B-C100) and Goat anti mouse antibody (Jackson ImmunoResearch, 115-035-003). Band density was calculated using ImageJ software.\nConcentrations of IL-18 in the serum or culture supernatants were measured using ELISA. Plates were coated over night with IL-18 (MBL, B004-2), incubated for 4 hours with supernatant or serum. Samples were then washed and plates were incubated with anti-mouse IL-18-biotin antibody (D048-6 MBL) for 1 hour and HRP-Avidin (BioLegend) for 1 hour before quantification.\nTissues were preserved in RNAlater solution (Ambion) and subsequently homogenized in Tri Reagent (Fox et al.). RNA was purified according to the manufacturer's instructions. Two microgram of total RNA was used to generate cDNA (HighCapacity cDNA Reverse Transcription kit; Applied Biosystems). RealTime-PCR was performed using gene-specific primer/probe sets (Applied Biosystems) and Kapa Probe Fast qPCR kit (Kapa Biosystems) on a Viia7 instrument (Applied Biosystems). PCR conditions were 95° C. for 20 s, followed by 40 cycles of 95° C. for 3 s and 60° C. for 30 s. Data were analyzed using the deltaCt method with hprt serving as the reference housekeeping gene.\nTo provide in-vivo validation to the above metabolite activities and to further characterize their effects on the host-microbiome interface, we administered taurine to mice in the drinking water. […] To test this notion directly, either LPS (a known ‘signal I’), taurine, or both were administered to GF WT mice. […] In contrast to taurine, in-vivo administration of histamine and spermine reduced the levels of activated caspase-1 (FIGS. 6J and 6K), while not altering the composition of hematopoietic cells in the lamina propria (FIG. 13D)."}, "[2]": {"conditions": "WT mice, DSS colitis, taurine in drinking water"}, "[3]": {"conditions": "WT mice, taurine in drinking water for two weeks, then DSS colitis"}}, "note": "“Also recorded” adds a separate entry of the source."}
{"smiles": "NCCc1c[nH]cn1", "note": "[histamine]", "values": [{"measurement": "exacerbation of DSS colitis", "setting": "DSS colitis; WT mice concomitantly treated with antibiotics", "result": "prevented"}, {"measurement": "DSS colitis", "setting": "DSS colitis; WT mice, histamine treatment", "result": "exacerbated"}, {"measurement": "colonic lamina propria hematopoietic cell populations", "setting": "[1]", "result": "not altering"}, {"measurement": "colonic caspase-1 activation (activated caspase-1 levels)", "setting": "[1]", "result": "reduced"}]}
{"smiles": "NCCCNCCCCNCCCN", "note": "[spermine]", "values": [{"measurement": "colonic lamina propria hematopoietic cell populations", "setting": "[1]", "result": "not altering"}, {"measurement": "colonic caspase-1 activation (activated caspase-1 levels)", "setting": "[1]", "result": "reduced"}]}
{"smiles": "NCCS(=O)(=O)O", "note": "[taurine]", "values": [{"measurement": "beneficial effects on DSS colitis", "setting": "DSS colitis; GF WT mice", "result": "failed to have beneficial effects"}, {"measurement": "beneficial effects on DSS colitis", "setting": "DSS colitis; WT mice treated with broad-spectrum antibiotics", "result": "failed to have beneficial effects"}, {"measurement": "hepatic bacterial load", "setting": "DSS colitis; [2]", "result": "decreased"}, {"measurement": "systemic FITC-dextran influx", "setting": "DSS colitis; [2]", "result": "reduced"}, {"measurement": "epithelial tight junction integrity", "setting": "DSS colitis; WT mice, DSS colitis, taurine in drinking water, ZO-1 staining", "result": "sustained"}, {"measurement": "beneficial effects on DSS colitis", "setting": "DSS colitis; WT mice, taurine administration stopped before induction of DSS colitis", "result": "beneficial effects were also observed"}, {"measurement": "colitis severity", "setting": "DSS colitis; [3]", "result": "ameliorated; also recorded: reduced"}, {"measurement": "weight loss", "setting": "DSS colitis; [3]", "result": "improved"}, {"measurement": "survival", "setting": "DSS colitis; WT mice, taurine in drinking water, DSS", "result": "enhanced"}, {"measurement": "beneficial effects on DSS colitis", "setting": "DSS colitis; mice lacking either ASC or NLRP6", "result": "failed to have beneficial effects"}, {"measurement": "IL-18 induction", "setting": "[1]; Asc-/- or Nlrp6-/- mice drinking taurine for 14 days", "result": "no IL-18 induction"}, {"measurement": "colonic lamina propria hematopoietic cell populations", "setting": "[1]", "result": "not accompanied by alterations"}, {"measurement": "colonic caspase-1 activation (activated caspase-1 levels)", "setting": "[1]", "result": "marked activation"}, {"measurement": "IL-18 secretion", "setting": "[1]; colon explants from WT mice drinking for 14 days", "result": "marked activation"}, {"measurement": "IL-18 mRNA levels", "setting": "[1]; colon of WT mice drinking for 14 days", "result": "not affecting"}, {"measurement": "epithelial Ang4 production", "setting": "[1]; sorted epithelial cells from WT mice drinking for 14 days", "result": "marked activation"}]}
